Laboratory results as given in PubChem BioAssay (NCI).
Where “and” joins values, the source holds several entries; their conditions need not be identical. Equal entries are not always repeated.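 Tested at 5 concentrations; 48 h exposure; 96-well plates; endpoints linearly interpolated, else capped at highest concentration. Abbreviation: GI50, concentration required for 50% inhibition of growth. TGI: concentration producing complete growth inhibition.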

Tests used:
Assay in all cases: NCI tumour cell line growth inhibition, 48 h
[1] = tested on: DMS 273 small cell lung
[2] = tested on: RXF-631 renal
[3] = tested on: LXFL 529 NSCLC
[4] = tested on: HOP-18 NSCLC
[5] = tested on: P388/ADR leukemia
[6] = tested on: SN12K1 renal
[7] = tested on: P388 leukemia

Row | SMILES | TGI [1] | TGI [2] | TGI [3] | TGI [4] | TGI [5] | TGI [6] | TGI [7] | GI50 [4] | GI50 [3]
1 | CC(=O)C(C(=O)C(=O)Nc1cc(Cl)c(Cl)cc1Cl)c1csc(N)n1 (configuration not stated) | > 100 µM | > 100 µM | > 100 µM | – | – | – | – | – | –
2 | O=[N+]([O-])c1cc(C(F)(F)F)cc2c1SC1=Nc3ccccc3CN12 | > 100 µM | – | – | > 100 µM | > 100 µM | > 100 µM | > 100 µM | – | –
3 | NCCNc1ccc(NCCN)c2c1C(=O)c1c(O)ccc(O)c1C2=O | – | 1.13 µM | 0.905 µM and 1.03 µM | 3.82 µM and 0.77 µM | – | – | – | 0.0263 µM | 0.105 µM
4 | CCC/C=C/C=C\C(=O)O[C@@H]1[C@@H](C)[C@]2(O)[C@@H]3C=C(C)C(=O)[C@H]3CC(COC(C)=O)=C[C@H]2[C@@H]2C(C)(C)[C@]12OC(C)=O | 82.4 µM | – | – | 109 µM | 300 µM | 48.8 µM | 9.61 µM | – | –
5 | C[N+]1(C)C/C(=C\C=C\c2ccccc2)C(=O)/C(=C/C=C/c2ccccc2)C1 | – | – | 11.6 µM | > 61.1 µM | – | – | – | – | –
6 | CCN(CC)CCCNC(=O)c1ccccc1Nc1c(Cl)cccc1Cl | 31.1 µM | – | 28.8 µM | – | – | – | – | – | –
7 | Nc1n[nH]c(N)n1 | 6450 µM | – | – | > 10000 µM | 8070 µM | > 10000 µM | 4240 µM | – | –
